Measured values published in ChEMBL document CHEMBL4706659, “Design, synthesis and biological evaluation of novel 2,4-diaryl pyrimidine derivatives as selective EGFR inhibitors” (Eur J Med Chem, 2021).

Columns and labels:
[1] = test system: PC-9; experiment: Antiproliferative activity against human PC-9 cells harboring EGFR L858R mutant by MTT assay; assay type: functional, cell-based
[2] = test system: NCI-H292; experiment: Antiproliferative activity against human NCI-H292 cells harboring wild-type EGFR by MTT assay; assay type: functional, cell-based
[3] = Selectivity ratio of IC50 for antiproliferative activity against human NCI-H292 cells harboring wild-type EGFR to IC50 for antiproliferative activity against human NCI-H1975 cells harboring EGFR T790M/L858R mutant; assay type: functional
[4] = biological target: Epidermal growth factor receptor (Homo sapiens, UniProt P00533, L858R/T790M); experiment: Inhibition of recombinant human GST-tagged EGFR T790M/L858R double mutant (668 to 1210 residues) expressed in baculovirus expression system using Tyr 4 as substrate incubated for 60 mins by Z'-Lyte assay
Epidermal growth factor receptor (Homo sapiens, UniProt P00533, L858R/T790M), sequence (P00533 25-1210 T790M/L858R limits assumed): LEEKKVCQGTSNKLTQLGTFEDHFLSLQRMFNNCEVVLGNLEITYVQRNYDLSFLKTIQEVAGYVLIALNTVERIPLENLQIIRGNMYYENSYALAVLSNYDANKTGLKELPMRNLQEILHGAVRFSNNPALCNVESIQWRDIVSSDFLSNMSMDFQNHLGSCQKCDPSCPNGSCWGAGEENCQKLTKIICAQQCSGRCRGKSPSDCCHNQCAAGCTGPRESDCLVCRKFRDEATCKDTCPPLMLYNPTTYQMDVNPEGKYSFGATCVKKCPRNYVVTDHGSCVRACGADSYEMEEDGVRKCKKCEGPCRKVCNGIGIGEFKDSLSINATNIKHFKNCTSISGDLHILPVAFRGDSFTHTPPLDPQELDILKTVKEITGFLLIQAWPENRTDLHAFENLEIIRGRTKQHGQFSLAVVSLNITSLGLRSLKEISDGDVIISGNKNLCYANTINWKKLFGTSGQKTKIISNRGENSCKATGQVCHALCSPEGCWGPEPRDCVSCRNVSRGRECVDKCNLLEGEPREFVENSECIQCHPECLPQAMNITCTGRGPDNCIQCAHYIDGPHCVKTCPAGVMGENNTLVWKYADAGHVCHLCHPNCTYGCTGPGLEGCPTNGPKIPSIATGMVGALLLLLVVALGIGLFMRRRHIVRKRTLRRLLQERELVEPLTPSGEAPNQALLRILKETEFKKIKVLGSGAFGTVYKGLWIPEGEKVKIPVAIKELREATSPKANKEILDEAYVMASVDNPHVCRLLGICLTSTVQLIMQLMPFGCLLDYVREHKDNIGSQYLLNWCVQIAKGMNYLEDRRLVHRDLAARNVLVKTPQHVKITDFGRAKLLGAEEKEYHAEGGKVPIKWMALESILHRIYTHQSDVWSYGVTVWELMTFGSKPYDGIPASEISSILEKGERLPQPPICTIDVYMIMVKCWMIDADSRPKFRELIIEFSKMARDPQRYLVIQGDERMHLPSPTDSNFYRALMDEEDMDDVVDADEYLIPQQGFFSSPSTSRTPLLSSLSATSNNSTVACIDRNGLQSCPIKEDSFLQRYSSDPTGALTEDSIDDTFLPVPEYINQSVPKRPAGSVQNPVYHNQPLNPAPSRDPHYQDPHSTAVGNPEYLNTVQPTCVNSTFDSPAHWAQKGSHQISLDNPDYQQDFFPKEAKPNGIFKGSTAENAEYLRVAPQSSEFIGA

[5] = biological target: Epidermal growth factor receptor (Homo sapiens, UniProt P00533); experiment: Inhibition of recombinant human GST-tagged EGFR expressed in baculovirus expression system using tyr-04 peptide as substrate incubated for 60 mins in presence of ATP by Z'-LYTE assay
Epidermal growth factor receptor (Homo sapiens, UniProt P00533), sequence (P00533 whole entry, the tested form may be a part): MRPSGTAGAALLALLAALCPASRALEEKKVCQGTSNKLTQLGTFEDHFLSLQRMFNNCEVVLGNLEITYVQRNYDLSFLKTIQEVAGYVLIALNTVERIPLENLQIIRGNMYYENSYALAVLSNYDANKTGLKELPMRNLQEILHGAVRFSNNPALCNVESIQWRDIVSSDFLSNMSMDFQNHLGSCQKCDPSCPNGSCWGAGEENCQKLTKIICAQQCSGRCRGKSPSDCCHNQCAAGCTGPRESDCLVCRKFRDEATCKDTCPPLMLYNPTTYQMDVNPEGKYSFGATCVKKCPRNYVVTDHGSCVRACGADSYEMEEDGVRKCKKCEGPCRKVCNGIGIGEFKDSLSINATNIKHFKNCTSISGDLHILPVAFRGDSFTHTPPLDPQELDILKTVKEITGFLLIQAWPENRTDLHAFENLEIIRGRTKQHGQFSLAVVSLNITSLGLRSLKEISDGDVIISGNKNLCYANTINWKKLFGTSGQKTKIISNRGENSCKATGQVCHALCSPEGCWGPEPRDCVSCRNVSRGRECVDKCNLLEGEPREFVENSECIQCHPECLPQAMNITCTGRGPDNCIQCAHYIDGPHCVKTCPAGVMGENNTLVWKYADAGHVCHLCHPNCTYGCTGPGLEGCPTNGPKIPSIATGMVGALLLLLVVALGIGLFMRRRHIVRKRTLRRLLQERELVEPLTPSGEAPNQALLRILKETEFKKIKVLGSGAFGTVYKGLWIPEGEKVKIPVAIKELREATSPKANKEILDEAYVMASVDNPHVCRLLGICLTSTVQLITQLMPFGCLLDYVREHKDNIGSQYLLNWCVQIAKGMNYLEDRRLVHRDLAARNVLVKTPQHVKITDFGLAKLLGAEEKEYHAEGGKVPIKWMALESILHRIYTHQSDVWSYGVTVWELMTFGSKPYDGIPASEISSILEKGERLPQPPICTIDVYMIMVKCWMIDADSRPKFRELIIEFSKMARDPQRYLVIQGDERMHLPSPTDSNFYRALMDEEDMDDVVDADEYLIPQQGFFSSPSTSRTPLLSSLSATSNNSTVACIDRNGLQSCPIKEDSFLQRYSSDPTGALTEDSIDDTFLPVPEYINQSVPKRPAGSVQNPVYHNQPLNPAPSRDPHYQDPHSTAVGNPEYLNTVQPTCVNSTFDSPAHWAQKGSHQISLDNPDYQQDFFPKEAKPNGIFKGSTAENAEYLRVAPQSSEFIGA

[6] = species: Homo sapiens; experiment: Selectivity ratio of IC50 for inhibition of recombinant human GST-tagged EGFR expressed in baculovirus expression system to IC50 for inhibition of recombinant human GST-tagged EGFR T790M/L858R double mutant (668 to 1210 residues) expressed in baculovirus expression system
[7] = Selectivity ratio of IC50 for HK-2 cells to IC50 for antiproliferative activity against human NCI-H1975 cells
[8] = test system: L02; experiment: Cytotoxicity against human L02 cells assessed as reduction in cell viability by MTT assay; assay type: cell-based
[9] = test system: HK-2; experiment: Cytotoxicity against HK-2 cells assessed as reduction in cell viability by MTT assay; assay type: cell-based; conditions: Homo sapiens
[10] = Cytotoxicity against HEK293-A cells assessed as reduction in cell viability by MTT assay; assay type: cell-based; conditions: Homo sapiens
[11] = test system: NCI-H1975; experiment: Antimigratory activity against human NCI-H1975 cells harboring EGFR T790M/L858R mutant assessed as inhibition of cell migration at 3 nM measured after 24 hrs by phase contrast microscopic analysis relative to control; assay type: functional
[12] = test system: NCI-H1975; experiment: Induction of apoptosis in human NCI-H1975 cells harboring EGFR T790M/L858R mutant assessed as early apoptotic cells at 1 nM measured after 48 hrs by Annexin-V-FITC/propidium iodide staining based flow cytometry (reference value: 0.82%); assay type: functional
[13] = test system: NCI-H1975; experiment: Induction of apoptosis in human NCI-H1975 cells harboring EGFR T790M/L858R mutant assessed as early apoptotic cells at 5 nM measured after 48 hrs by Annexin-V-FITC/propidium iodide staining based flow cytometry (reference value: 0.82%); assay type: functional
[14] = test system: NCI-H1975; experiment: Induction of apoptosis in human NCI-H1975 cells harboring EGFR T790M/L858R mutant assessed as necrotic cells at 5 nM measured after 48 hrs by Annexin-V-FITC/propidium iodide staining based flow cytometry (reference value: […]); assay type: functional
[15] = test system: NCI-H1975; experiment: Induction of apoptosis in human NCI-H1975 cells harboring EGFR T790M/L858R mutant assessed as early apoptotic cells at 10 nM measured after 48 hrs by Annexin-V-FITC/propidium iodide staining based flow cytometry (reference value: 0.82%); assay type: functional
[16] = test system: NCI-H1975; experiment: Induction of apoptosis in human NCI-H1975 cells harboring EGFR T790M/L858R mutant assessed as viable cells at 1 nM measured after 72 hrs by Annexin-V-FITC/propidium iodide staining based flow cytometry (reference value: 98.66%); assay type: functional; conditions: read-out: Activity
[17] = test system: NCI-H1975; experiment: Induction of apoptosis in human NCI-H1975 cells harboring EGFR T790M/L858R mutant assessed as late apoptotic cells at 1 nM measured after 72 hrs by Annexin-V-FITC/propidium iodide staining based flow cytometry (reference value: 0.13%); assay type: functional
[18] = test system: NCI-H1975; experiment: Induction of apoptosis in human NCI-H1975 cells harboring EGFR T790M/L858R mutant assessed as viable cells at 10 nM measured after 72 hrs by Annexin-V-FITC/propidium iodide staining based flow cytometry (reference value: 98.66%); assay type: functional; conditions: read-out: Activity
[19] = test system: NCI-H1975; experiment: Induction of apoptosis in human NCI-H1975 cells harboring EGFR T790M/L858R mutant assessed as early apoptotic cells at 10 nM measured after 72 hrs by Annexin-V-FITC/propidium iodide staining based flow cytometry (reference value: 0.72%); assay type: functional
[20] = test system: NCI-H1975; experiment: Induction of apoptosis in human NCI-H1975 cells harboring EGFR T790M/L858R mutant assessed as late apoptotic cells at 10 nM measured after 72 hrs by Annexin-V-FITC/propidium iodide staining based flow cytometry (reference value: 0.13%); assay type: functional
[21] = test system: NCI-H1975; experiment: Induction of mitochondrial membrane potential loss in human NCI-H1975 cells harboring EGFR T790M/L858R mutant assessed as cells with intact mitochondrial membrane potential at 1 nM measured after 24 hrs by JC1 staining based fluorescence microscopic analysis (reference value: 94.51%); assay type: functional
[22] = test system: NCI-H1975; experiment: Induction of mitochondrial membrane potential loss in human NCI-H1975 cells harboring EGFR T790M/L858R mutant assessed as cell population with mitochondrial membrane potential collapse at 1 nM measured after 24 hrs by JC1 staining based fluorescence microscopic analysis (reference value: 5.49%); assay type: functional
[23] = test system: NCI-H1975; experiment: Induction of mitochondrial membrane potential loss in human NCI-H1975 cells harboring EGFR T790M/L858R mutant assessed as cell population with mitochondrial membrane potential collapse at 10 nM measured after 24 hrs by JC1 staining based fluorescence microscopic analysis (reference value: 5.49%); assay type: functional
[24] = Half life in Sprague-Dawley rat at 10 mg/kg, po administered as single dose; assay type: ADME, organism-based; conditions: in vivo
[25] = Cmax in Sprague-Dawley rat at 10 mg/kg, po administered as single dose; assay type: ADME, organism-based; set-up: route oral, dose 10 mg/kg; conditions: in vivo
[26] = AUC (0 to t) in Sprague-Dawley rat at 10 mg/kg, po administered as single dose; assay type: ADME, organism-based; set-up: dose 10 mg/kg; conditions: in vivo
[27] = AUC (0 to infinity) in Sprague-Dawley rat at 10 mg/kg, po administered as single dose; assay type: ADME, organism-based; set-up: time infinity, route oral, dose 10 mg/kg; conditions: in vivo
[28] = Cmax in Sprague-Dawley rat at 2 mg/kg, iv administered as single dose; assay type: ADME, organism-based; set-up: route intravenous, dose 2 mg/kg; conditions: in vivo
[29] = AUC (0 to t) in Sprague-Dawley rat at 2 mg/kg, iv administered as single dose; assay type: ADME, organism-based; set-up: dose 2 mg/kg; conditions: in vivo
[30] = AUC (0 to infinity) in Sprague-Dawley rat at 2 mg/kg, iv administered as single dose; assay type: ADME, organism-based; set-up: route intravenous, time infinity, dose 2 mg/kg; conditions: in vivo
[31] = Clearance in Sprague-Dawley rat at 2 mg/kg, iv administered as single dose; assay type: ADME, organism-based; conditions: in vivo
[32] = MRT in Sprague-Dawley rat at 2 mg/kg, iv administered as single dose; assay type: ADME, organism-based; conditions: in vivo
[33] = test system: NCI-H1975; experiment: Antitumor activity against human NCI-H1975 cells harboring EGFR T790M/L858R mutant xenografted in nude mouse assessed as tumor volume at 15 mg/kg, po administered once daily for 7 days (reference value: 843 mm3); assay type: functional; conditions: time 7 day
[34] = Toxicity in nude mouse xenografted with human NCI-H1975 cells harboring EGFR T790M/L858R mutant assessed as mortality at 15 mg/kg, po administered once daily for 7 days relative to control; assay type: organism-based; conditions: in vivo, time 7 day, read-out: Activity

Q: What does the source list for `C=CC(=O)Nc1cc(Nc2nccc(-c3cn(C4CC4)c4ccccc34)n2)c(OC)cc1[S+]([O-])CCN(C)C` (centres undefined)?
A: IC50 [1]: 4 nM; IC50 [2]: 718 nM; Ratio IC50 [3]: 89.8; IC50 [4]: 0.26 nM; IC50 [5]: 4.1 nM; Ratio IC50 [6]: 15.8; Ratio IC50 [7]: 733; IC50 [8]: 4670 nM; IC50 [9]: 5860 nM; IC50 [10]: 3060 nM; inhibition at 0.003 µM [11]: 39%; Activity [12]: 10.89%; Activity [13]: 21.73%; Activity [14]: 7.42%; Activity [15]: 15.92%; viability at 0.001 µM [16]: 70.3%; Activity [17]: 2.93%; viability at 0.01 µM [18]: 27.4%; Activity [19]: 44.72%; Activity [20]: 22.53%; Activity [21]: 80.71%; Activity [22]: 19.29%; Activity [23]: 40.31%; half-life [24]: 2.51 h; Cmax [25]: 203 ng/mL; AUC(0-t) [26]: 676 ng·h/mL; AUC(0-inf) [27]: 722 ng·h/mL; Cmax [28]: 503 ng/mL; AUC(0-t) [29]: 335 ng·h/mL; AUC(0-inf) [30]: 340 ng·h/mL; clearance [31]: 98.1 mL/min/kg; MRT [32]: 1.01 h; Activity [33]: 56 mm3; mortality at 168 h [34]: < 5%
